Reference: patent US8623879B2, “1-heterocyclyl-1,5-dihydro-pyrazolo[3,4-D] pyrimidin-4-one derivates and their use as PDE9A modulators” (Boehringer Ingelheim International GmbH, priority 2008, dated 2014)

Biological target: T1, human PDE9A2 (Homo sapiens, UniProt O76083)
T1 construct: made in house; host or cells: Sf9 insect cells (infected); crude lysate used as enzyme source
Experiment: PDE9A2 enzymatic activity assay (scintillation proximity assay, SPA)
Assay type: biochemical
Details: for inhibition at 10 µM: read-out: % inhibition of PDE9A2 (at 10 micromolar concentration), 10 micromolar concentration; for inhibition at 10 µM / % inhibition of PDE9A2 (at 10 micromolar concentration): values above 100% adjusted to 100%; for IC50: reported only as range 1-100 or 101-1200 nanomolar, specific value lies within range, read-out: IC50 within range [nanomolar (nM)]

T1 sequence (O76083 1-533 isoform O76083-2): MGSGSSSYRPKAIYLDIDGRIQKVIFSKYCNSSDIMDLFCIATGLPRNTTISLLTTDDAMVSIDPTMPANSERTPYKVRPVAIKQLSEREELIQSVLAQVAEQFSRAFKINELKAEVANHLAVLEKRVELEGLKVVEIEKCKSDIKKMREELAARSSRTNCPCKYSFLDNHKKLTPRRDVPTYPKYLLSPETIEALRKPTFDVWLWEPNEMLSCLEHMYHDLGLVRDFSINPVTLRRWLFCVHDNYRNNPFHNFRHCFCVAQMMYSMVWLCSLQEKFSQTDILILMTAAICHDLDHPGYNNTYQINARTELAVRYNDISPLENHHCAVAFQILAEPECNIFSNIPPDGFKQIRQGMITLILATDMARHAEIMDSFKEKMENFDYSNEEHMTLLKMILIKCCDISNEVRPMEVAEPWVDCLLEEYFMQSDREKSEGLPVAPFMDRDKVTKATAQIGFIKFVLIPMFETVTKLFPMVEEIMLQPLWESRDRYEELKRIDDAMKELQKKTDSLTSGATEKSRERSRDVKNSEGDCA

Structure (SMILES) | inhibition at 10 µM [%] | IC50 [nM] | % inhibition of PDE9A2 (at 10 micromolar concentration) [%]
N#Cc1cccc(Cc2nc3c(cnn3C3CCCOC3)c(=O)[nH]2)c1 (racemic) [Example 98] | 97 | 1 to 100 | 
O=c1[nH]c(Cc2cc(OC(F)(F)F)ccc2F)nc2c1cnn2C1CCOCC1 [Example 50] | 97 | 1 to 100 | 
O=c1[nH]c(Cc2ccccc2OC(F)(F)F)nc2c1cnn2C1CCCOC1 (racemic) [Example 91] | 99 | 1 to 100 | 
O=c1[nH]c(CC2CCOCC2)nc2c1cnn2C1CCOCC1 [Example 41] | 92 | 101 to 1200 | 
CC(C)Cc1nc2c(cnn2C2CCCCO2)c(=O)[nH]1 (racemic) [Example 146] | 91 | 101 to 1200 | 
CCC(Cc1nc2c(cnn2C2CCCN(C(C)=O)C2)c(=O)[nH]1)C(F)(F)F (mixture of isomers) [Example 173] | 86 | 101 to 1200 | 
CCC(Cc1nc2c(cnn2C2CCOCC2)c(=O)[nH]1)C(F)(F)F (single isomer, unassigned) [Example 61] | 97 | 1 to 100 | 
CC(C)(C)OC(=O)N1CCCC(n2ncc3c(=O)[nH]c(Cc4cccc(C(F)(F)F)c4)nc32)C1 (racemic) [Example 22] | 98 | 1 to 100 | 
CCOc1ccccc1Cc1nc2c(cnn2C2CCOC(C)(C)C2)c(=O)[nH]1 (racemic) [Example 105] | 84 | 101 to 1200 | 
CCC(Cc1nc2c(cnn2C2CCOC2)c(=O)[nH]1)C(F)(F)F (mixture of isomers) [Example 77] | 89 | 101 to 1200 | 
CCC(Cc1nc2c(cnn2C2CCOCC2)c(=O)[nH]1)C(F)(F)F (single isomer, unassigned) [Example 62] |  | 1 to 100 | 95
Cc1cccnc1Cc1nc2c(cnn2C2CCOC2)c(=O)[nH]1 (racemic) [Example 87] | 86 | 101 to 1200 | 
CCC(CC)Cc1nc2c(cnn2C2CCCOC2)c(=O)[nH]1 (racemic) [Example 130] | 99 | 1 to 100 | 
CC(Cc1nc2c(cnn2C2CCOCC2)c(=O)[nH]1)C(F)(F)F (racemic) [Example 46] | 100 | 1 to 100 | 
CCC(Cc1nc2c(cnn2C2CCCN(C(=O)OC(C)(C)C)C2)c(=O)[nH]1)C(F)(F)F (racemic) [Example 21] | 97 | 101 to 1200 | 
CC(C)Cc1nc2c(cnn2C2CCOCC2C)c(=O)[nH]1 (racemic) [Example 132-8] |  | 101 to 1200 | 94
O=c1[nH]c(Cc2ccc(F)cc2)nc2c1cnn2C1CCOC1 (racemic) [Example 79] | 99 | 1 to 100 | 
O=c1[nH]c(Cc2ccc(F)c(Cl)c2)nc2c1cnn2C1CCOCC1 [Example 137] | 99 | 1 to 100 | 
O=c1[nH]c(CC2CCC(F)(F)CC2)nc2c1cnn2C1CCOCC1 [Example 40-6] | 97 | 1 to 100 | 
O=c1[nH]c(Cc2cccc(C(F)(F)F)c2)nc2c1cnn2C1CCOCC1 [Example 44] | 99 | 1 to 100 | 
CC1CC(n2ncc3c(=O)[nH]c(Cc4ccccc4C(F)(F)F)nc32)CCO1 (racemic) [Example 116] |  | 101 to 1200 | 93
Cc1cc(C)cc(Cc2nc3c(cnn3C3CCOCC3)c(=O)[nH]2)c1 [Example 36] | 100 | 1 to 100 | 
CC(C)Cc1nc2c(cnn2C2CCOCC2C)c(=O)[nH]1 (racemic) [Example 132-1] | 97 | 1 to 100 | 
CCC(C)Cc1nc2c(cnn2C2CCCOC2)c(=O)[nH]1 (mixture of isomers) [Example 95] | 98 | 1 to 100 | 
O=c1[nH]c(Cc2cccnc2)nc2c1cnn2C1CCOCC1 [Example 123] | 91 | 101 to 1200 | 
CCC(CC)Cc1nc2c(cnn2C2CCOC2)c(=O)[nH]1 (racemic) [Example 76] | 98 | 1 to 100 | 
COc1ccc(Cc2nc3c(cnn3C3CCOCC3)c(=O)[nH]2)cc1 [Example 11] | 98 | 1 to 100 | 
O=c1[nH]c(Cc2cc(C(F)(F)F)ccn2)nc2c1cnn2C1CCOCC1 [Example 65] | 97 | 1 to 100 | 

Next, values leading:

inhibition at 10 µM [%] | IC50 [nM] | % inhibition of PDE9A2 (at 10 micromolar concentration) [%] | Structure (SMILES)
92 | 101 to 1200 |  | CC(=O)N1CCC(n2ncc3c(=O)[nH]c(CC4CCCC4)nc32)CC1 [Example 151]
100 | 101 to 1200 |  | O=C(c1ccccc1)N1CCC(n2ncc3c(=O)[nH]c(CC4CCC4)nc32)C1 (racemic) [Example 171]
87 | 101 to 1200 |  | O=c1[nH]c(Cc2ccccc2F)nc2c1cnn2C1CCCNC1 (racemic) [Example 204]
100 | 1 to 100 |  | CC(C)(C)OC(=O)N1CCCC(n2ncc3c(=O)[nH]c(CC4CCC4)nc32)C1 (racemic) [Example 32]
82 | 101 to 1200 |  | CN(C)C(=O)N1CCC(n2ncc3c(=O)[nH]c(Cc4ccccc4)nc32)C1 (racemic) [Example 190]
97 | 1 to 100 |  | CC(=O)N1CCCC(n2ncc3c(=O)[nH]c(Cc4cccc(C(F)(F)F)c4)nc32)C1 (racemic) [Example 184]
99 | 1 to 100 |  | CC(C)(C)OC(=O)N1CCCC(n2ncc3c(=O)[nH]c(Cc4ccccc4)nc32)C1 (racemic) [Example 18]
89 | 101 to 1200 |  | O=c1[nH]c(CC2CC2)nc2c1cnn2C1CCS(=O)(=O)CC1 [Example 237]
85 | 101 to 1200 |  | O=c1[nH]c(CC2CCC2)nc2c1cnn2C1CCNC1 (racemic) [Example 201]
99 | 1 to 100 |  | O=c1[nH]c(CC2CCCC2)nc2c1cnn2C1CCCCO1 (racemic) [Example 147]
85 | 101 to 1200 |  | CC(=O)N1CCCC(n2ncc3c(=O)[nH]c(Cc4ccccn4)nc32)C1 (racemic) [Example 176]
100 | 1 to 100 |  | O=c1[nH]c(Cc2ccccc2O[C@@H]2CCOC2)nc2c1cnn2C1CCOCC1 [Example 57]
100 | 1 to 100 |  | COC(=O)N1CCCC(n2ncc3c(=O)[nH]c(CC4CCCC4)nc32)C1 (racemic) [Example 154]
91 | 101 to 1200 |  | O=c1[nH]c(Cc2ccccc2)nc2c1cnn2C1CCCNC1 (racemic) [Example 197]
 | 101 to 1200 | 95 | O=c1[nH]c(CC2CCC2)nc2c1cnn2C1CCOC1 (single isomer, unassigned) [Example 132-9]
97 | 101 to 1200 |  | O=c1[nH]c(CC2CCCC2)nc2c1cnn2C1CCNC1 (racemic) [Example 194]
92 | 101 to 1200 |  | CCOc1ccccc1Cc1nc2c(cnn2C2CCCN(C(=O)c3ccccc3)C2)c(=O)[nH]1 (racemic) [Example 178]
95 | 101 to 1200 |  | CN1CCC(n2ncc3c(=O)[nH]c(CC4CCCC4)nc32)CC1 [Example 149]

inhibition at 10 µM [%] | IC50 [nM] | % inhibition of PDE9A2 (at 10 micromolar concentration) [%] | Structure (SMILES)
92 | 101 to 1200 |  | O=C(c1ccccc1)N1CCC(n2ncc3c(=O)[nH]c(Cc4ccccc4)nc32)C1 (racemic) [Example 166]
95 | 101 to 1200 |  | CN(C)C(=O)N1CCCC(n2ncc3c(=O)[nH]c(Cc4ccccc4OC(F)(F)F)nc32)C1 (racemic) [Example 161]
97 | 101 to 1200 |  | O=C(c1ccccc1)N1CCCC(n2ncc3c(=O)[nH]c(Cc4ccccc4OC(F)(F)F)nc32)C1 (racemic) [Example 163]
88 | 101 to 1200 |  | CN1CCCC(n2ncc3c(=O)[nH]c(CC4CCC4)nc32)C1 (racemic) [Example 218]
86 | 101 to 1200 |  | O=c1[nH]c(Cc2ccccc2C(F)(F)F)nc2c1cnn2C1CCCCO1 (racemic) [Example 147-1]
82 | 101 to 1200 |  | O=c1[nH]c(CC2CCC2)nc2c1cnn2C1CCCNC1 (racemic) [Example 206]
94 | 1 to 100 |  | O=c1[nH]c(CC2CC2)nc2c1cnn2C1CCOC1 (racemic) [Example 80]
99 | 1 to 100 |  | CC(C)(C)OC(=O)N1CCCC(n2ncc3c(=O)[nH]c(Cc4ccccc4OC(F)(F)F)nc32)C1 (racemic) [Example 19]
89 | 101 to 1200 |  | CN1CCCC(n2ncc3c(=O)[nH]c(Cc4ccccc4OC(F)(F)F)nc32)C1 (racemic) [Example 209]
92 | 101 to 1200 |  | COc1ccccc1Cc1nc2c(cnn2C2CCN(C)C2)c(=O)[nH]1 (racemic) [Example 212]
95 | 1 to 100 |  | CC1CC(n2ncc3c(=O)[nH]c(CC4CCC4)nc32)CCO1 (racemic) [Example 120]
96 | 1 to 100 |  | O=c1[nH]c(CC2CC2)nc2c1cnn2C1CCCOC1 (racemic) [Example 99]
100 | 1 to 100 |  | COC(=O)N1CCCC(n2ncc3c(=O)[nH]c(Cc4ccccc4)nc32)C1 (racemic) [Example 155]
98 | 1 to 100 |  | O=c1[nH]c(CC2CC2)nc2c1cnn2C1CCSCC1 [Example 40-5]
100 | 1 to 100 |  | O=c1[nH]c(CCC2CCC2)nc2c1cnn2C1CCOCC1 [Example 40-1]
90 | 101 to 1200 |  | CC(=O)N1CCCC(n2ncc3c(=O)[nH]c(CC(C)C)nc32)C1 (racemic) [Example 189]
90 | 101 to 1200 |  | CC(=O)N1CCC(n2ncc3c(=O)[nH]c(Cc4ccccc4OC(F)(F)F)nc32)CC1 [Example 153]
